Experimental data taken from US12721934B2, “Cationic nanodrug, preparation method therefor, and drug-loaded implantable medical device” (SHANGHAI MICROPORT MEDICAL (GROUP) CO., LTD., priority 2019, dated 2026).

Tested on: Vascular smooth muscle cells (SMCs)
Assay: Cytotoxicity of the cationic substances (MTT)
Format: cell-based
Procedure: Vascular smooth muscle cells (SMCs) were collected and the cell concentration was determined using a hemocytometer. The cell concentration was adjusted to […] using a liquid cell culture medium. The cell suspension was dispensed on a 96-well plate ([…] cells in each well) and the wells were divided into groups (a control group and four test groups), four wells for each group. After the cells were cultivated for 24 hours under regular cell culture conditions, the culture medium was pipetted away. Each of the fresh culture media and culture media respectively containing the suspensions of non-drug loaded nanoparticles prepared in Example 14, Comparative Example 2 and Comparative Example 3 was added (the cationic substance in each of the three examples has a same concentration). After the cells were further cultivated for 24 hours, 50 μL of an MTT agent was dispensed into each well, and the cells were then incubated for 4 hours in a CO2 incubator. After that, the culture media were carefully pipetted away, and 150 μL of dimethyl sulfoxide was added to each well. The plate was then shaken gently to facilitate dissolution of formazan. Absorbance of each well at 490 nm was measured using a microplate reader, and cell survival rates were calculated according to: […]

SMILES	Cytotoxicity (in words)
CCCCCCCC/C=C\CCCCCCCC(=O)OCC(C[N+](C)(C)C)OC(=O)CCCCCCC/C=C\CCCCCCCC.[Cl-] (centres unmarked) [DOTAP, 1,2-dioleoyl-3-trimethylammonium-propane chloride]	does not show noticeable cytotoxicity
CCCCCCCCCCCC[N+](C)(C)CCCCCCCCCCCC.[Br-] [DMAB, didodecyldimethylammonium bromide]	serious cytotoxicity
